According to ChEMBL document CHEMBL3885881, “DrugMatrix”:

Organism: Rattus norvegicus
Test: DrugMatrix - Regimen: Daily Repeat
Format: toxicity, organism-based, Sprague-Dawley
Set-up: regimen Daily Repeat, gender Male, age 6-8 weeks
Settings: in vivo, po, route oral GAVAGE, vehicle .5 % CMC; for ABSOLUTE BASOPHIL / ABSOLUTE EOSINOPHIL / ABSOLUTE LYMPHOCYTE / ABSOLUTE MONOCYTE / ABSOLUTE SEGMENTED NEUTROPHIL / BASOPHIL / EOSINOPHIL / ERYTHROCYTE COUNT / HEMATOCRIT / HEMOGLOBIN / LEUKOCYTE COUNT / LYMPHOCYTE / MEAN CORPUSCULAR HEMOGLOBIN / MEAN CORPUSCULAR HEMOGLOBIN CONCENTRATION / MEAN CORPUSCULAR VOLUME / MONOCYTE / NEUTROPHIL / NUCLEATED RED BLOOD CELLS / PLATELET COUNT: tissue Blood; for ALANINE AMINOTRANSFERASE / ALBUMIN / ALKALINE PHOSPHATASE / ASPARTATE AMINOTRANSFERASE / BLOOD UREA NITROGEN / CARBON DIOXIDE / CHLORIDE / CHOLESTEROL / CREATINE PHOSPHOKINASE / CREATININE / GLUCOSE / LACTATE DEHYDROGENASE / LIPASE / PHOSPHORUS / POTASSIUM / SODIUM / TOTAL BILIRUBIN / TOTAL PROTEIN / URIC ACID: tissue Plasma
[1] = 60 mg/kg, 72 h, dose level Low, time 3 day
[2] = 60 mg/kg, 120 h, dose level Low, time 5 day
[3] = 1200 mg/kg, 72 h, dose level High, time 3 day
[4] = 1200 mg/kg, 120 h, dose level High, time 5 day

## CCS(=O)(=O)CCn1c([N+](=O)[O-])cnc1C [TINIDAZOLE]
[1]
  ABSOLUTE BASOPHIL: 0 CELLS/uL
  ABSOLUTE EOSINOPHIL: 339 CELLS/uL
  ABSOLUTE LYMPHOCYTE: 11000.67 CELLS/uL
  ABSOLUTE MONOCYTE: 171.33 CELLS/uL
  ABSOLUTE SEGMENTED NEUTROPHIL: 989 CELLS/uL
  BASOPHIL: 0%
  EOSINOPHIL: 2.67%
  ERYTHROCYTE COUNT: 5.79 x10E6/uL
  HEMATOCRIT: 34.93%
  HEMOGLOBIN: 13.13 G/DL
  LEUKOCYTE COUNT: 12.5 x10E3/uL
  LYMPHOCYTE: 88%
  MEAN CORPUSCULAR HEMOGLOBIN: 22.67 pg
  MEAN CORPUSCULAR HEMOGLOBIN CONCENTRATION: 37.67 G/DL
  MEAN CORPUSCULAR VOLUME: 60.2 fL
  MONOCYTE: 1.33%
  NEUTROPHIL: 8%
  NUCLEATED RED BLOOD CELLS: 0 /100WBC
  PLATELET COUNT: 1415.67 x10E3/uL
  ALANINE AMINOTRANSFERASE: 51.33 u/L
  ALBUMIN: 4.33 G/DL
  ALKALINE PHOSPHATASE: 361.33 u/L
  ASPARTATE AMINOTRANSFERASE: 96.67 u/L
  BLOOD UREA NITROGEN: 14.67 mg/dL
  CARBON DIOXIDE: 26 mmol/L
  CHLORIDE: 105 MEQ/L
  CHOLESTEROL: 71 mg/dL
  CREATINE PHOSPHOKINASE: 896 u/L
  CREATININE: 0.17 mg/dL
  GLUCOSE: 168 mg/dL
  LACTATE DEHYDROGENASE: 108.33 u/L
  LIPASE: 9 u/L
  PHOSPHORUS: 14.2 mg/dL
  POTASSIUM: 6.01 MEQ/L
  SODIUM: 145.6 MEQ/L
  TOTAL BILIRUBIN: 0.23 mg/dL
  TOTAL PROTEIN: 5.87 G/DL
  URIC ACID: 2.47 mg/dL
[2]
  ABSOLUTE BASOPHIL: 0 CELLS/uL
  ABSOLUTE EOSINOPHIL: 103.33 CELLS/uL
  ABSOLUTE LYMPHOCYTE: 13904.67 CELLS/uL
  ABSOLUTE MONOCYTE: 205.33 CELLS/uL
  ABSOLUTE SEGMENTED NEUTROPHIL: 1020 CELLS/uL
  BASOPHIL: 0%
  EOSINOPHIL: 0.67%
  ERYTHROCYTE COUNT: 5.73 x10E6/uL
  HEMATOCRIT: 35.5%
  HEMOGLOBIN: 13.43 G/DL
  LEUKOCYTE COUNT: 15.23 x10E3/uL
  LYMPHOCYTE: 91.33%
  MEAN CORPUSCULAR HEMOGLOBIN: 23.43 pg
  MEAN CORPUSCULAR HEMOGLOBIN CONCENTRATION: 37.83 G/DL
  MEAN CORPUSCULAR VOLUME: 61.97 fL
  MONOCYTE: 1.33%
  NEUTROPHIL: 6.67%
  NUCLEATED RED BLOOD CELLS: 0.33 /100WBC
  PLATELET COUNT: 1361.67 x10E3/uL
  ALANINE AMINOTRANSFERASE: 48 u/L
  ALBUMIN: 4.23 G/DL
  ALKALINE PHOSPHATASE: 407 u/L
  ASPARTATE AMINOTRANSFERASE: 87 u/L
  BLOOD UREA NITROGEN: 18 mg/dL
  CARBON DIOXIDE: 26.33 mmol/L
  CHLORIDE: 107 MEQ/L
  CHOLESTEROL: 76.33 mg/dL
  CREATINE PHOSPHOKINASE: 445.33 u/L
  CREATININE: 0.21 mg/dL
  GLUCOSE: 165.33 mg/dL
  LACTATE DEHYDROGENASE: 155 u/L
  LIPASE: 9 u/L
  PHOSPHORUS: 13.63 mg/dL
  POTASSIUM: 6.07 MEQ/L
  SODIUM: 145.9 MEQ/L
  TOTAL BILIRUBIN: 0.17 mg/dL
  TOTAL PROTEIN: 6.5 G/DL
  URIC ACID: 2.07 mg/dL
[3]
  ABSOLUTE BASOPHIL: 0 CELLS/uL
  ABSOLUTE EOSINOPHIL: 0 CELLS/uL
  ABSOLUTE LYMPHOCYTE: 8834.67 CELLS/uL
  ABSOLUTE MONOCYTE: 232.67 CELLS/uL
  ABSOLUTE SEGMENTED NEUTROPHIL: 799.33 CELLS/uL
  BASOPHIL: 0%
  EOSINOPHIL: 0%
  ERYTHROCYTE COUNT: 5.53 x10E6/uL
  HEMATOCRIT: 35.63%
  HEMOGLOBIN: 13.37 G/DL
  LEUKOCYTE COUNT: 9.87 x10E3/uL
  LYMPHOCYTE: 89.67%
  MEAN CORPUSCULAR HEMOGLOBIN: 24.17 pg
  MEAN CORPUSCULAR HEMOGLOBIN CONCENTRATION: 37.57 G/DL
  MEAN CORPUSCULAR VOLUME: 64.4 fL
  MONOCYTE: 2.33%
  NEUTROPHIL: 8%
  NUCLEATED RED BLOOD CELLS: 0 /100WBC
  PLATELET COUNT: 1043.67 x10E3/uL
  ALANINE AMINOTRANSFERASE: 47 u/L
  ALBUMIN: 4.5 G/DL
  ALKALINE PHOSPHATASE: 362.67 u/L
  ASPARTATE AMINOTRANSFERASE: 80.33 u/L
  BLOOD UREA NITROGEN: 15.33 mg/dL
  CARBON DIOXIDE: 28 mmol/L
  CHLORIDE: 106 MEQ/L
  CHOLESTEROL: 89.33 mg/dL
  CREATINE PHOSPHOKINASE: 226.67 u/L
  CREATININE: 0.24 mg/dL
  GLUCOSE: 123 mg/dL
  LACTATE DEHYDROGENASE: 186 u/L
  LIPASE: 9.33 u/L
  PHOSPHORUS: 11.47 mg/dL
  POTASSIUM: 6.78 MEQ/L
  SODIUM: 150.07 MEQ/L
  TOTAL BILIRUBIN: 0.3 mg/dL
  TOTAL PROTEIN: 6.13 G/DL
  URIC ACID: 1 mg/dL
[4]
  ABSOLUTE BASOPHIL: 0 CELLS/uL
  ABSOLUTE EOSINOPHIL: 57.67 CELLS/uL
  ABSOLUTE LYMPHOCYTE: 15287.67 CELLS/uL
  ABSOLUTE MONOCYTE: 50.33 CELLS/uL
  ABSOLUTE SEGMENTED NEUTROPHIL: 2437.67 CELLS/uL
  BASOPHIL: 0%
  EOSINOPHIL: 0.33%
  ERYTHROCYTE COUNT: 5.86 x10E6/uL
  HEMATOCRIT: 35.6%
  HEMOGLOBIN: 13.2 G/DL
  LEUKOCYTE COUNT: 17.83 x10E3/uL
  LYMPHOCYTE: 85%
  MEAN CORPUSCULAR HEMOGLOBIN: 22.53 pg
  MEAN CORPUSCULAR HEMOGLOBIN CONCENTRATION: 37.07 G/DL
  MEAN CORPUSCULAR VOLUME: 60.8 fL
  MONOCYTE: 0.33%
  NEUTROPHIL: 14.33%
  NUCLEATED RED BLOOD CELLS: 0 /100WBC
  PLATELET COUNT: 1437 x10E3/uL
  ALANINE AMINOTRANSFERASE: 43.33 u/L
  ALBUMIN: 4.3 G/DL
  ALKALINE PHOSPHATASE: 276.33 u/L
  ASPARTATE AMINOTRANSFERASE: 79.67 u/L
  BLOOD UREA NITROGEN: 19.33 mg/dL
  CARBON DIOXIDE: 25 mmol/L
  CHLORIDE: 105 MEQ/L
  CHOLESTEROL: 76.67 mg/dL
  CREATINE PHOSPHOKINASE: 212.67 u/L
  CREATININE: 0.29 mg/dL
  GLUCOSE: 152 mg/dL
  LACTATE DEHYDROGENASE: 226.67 u/L
  LIPASE: 8.67 u/L
  PHOSPHORUS: 12.57 mg/dL
  POTASSIUM: 6.85 MEQ/L
  SODIUM: 146.2 MEQ/L
  TOTAL BILIRUBIN: 0.13 mg/dL
  TOTAL PROTEIN: 6.7 G/DL
  URIC ACID: 2.17 mg/dL
